Test results taken from patent EP2156836A1, “[…] PHARMACEUTICAL COMPOSITIONS CONSISTING OF A COMBINATION OF A 5 alpha-REDUCTASE ENZYME INHIBITOR AND A 1 alpha- […] RECEPTOR ANTAGONIST” (priority 2007, dated 2008).
Where two headings read alike, the source gives them in different places.

Experiments:
[1] = tested on: Benign Prostatic Hyperplasia; format: in vivo, male patients; details: for Clinical Progression of BPH at 12 months of treatment (patients/group) / Clinical Progression of BPH at 12 months of treatment: daily tablet 12 months: Alfuzosine 10 mg, Finasteride 5 mg; for Clinical Progression of BPH at 12 months of treatment (patients/group): combination Finasteride 5 mg + Alfuzosine 5 mg; for Clinical Progression of BPH at 12 months of treatment (patients/group) / Increase in symptoms according to the score from American Association of Urology at 12 months of treatment (patients/group): n=40 per group; for Side Effects / patients who discontinued the treatment: human, in vivo; for Clinical Progression of BPH at 12 months of treatment: combination 5 mg + 5 mg, n=40
Experimental: In this clinical trial several tests were performed wherein Placebo, Finasteride, Alfuzosine and a combination of Finasteride/Alfuzosine were administered to a population of patients diagnosed with Benign Prostatic Hyperplasia.
(§1) Said clinical trial was applied in 160 male patients with a 60-year old average, wherein the symptoms manifested according to Urology American Association ranking were scored (score is assigned according to the following criteria: from 0= No symptoms to 35= severe symptoms). […] Finally, vital signs, treatment compliance and side effects were assessed for each of the groups.
(§2) At the beginning and at the end of said clinical trial the following examinations were applied to the patients: digital rectal examination, prostate-specific antigen assessment and urine analysis.
Subjects were randomized and assigned to a double-blind study divided into 4 groups. Randomization was stratified and medicament administration at night. • Group 1 Placebo: Patients received a daily tablet along 12 months. • Group 2 Finasteride: Patients received a daily 5 mg tablet along 12 months. • Group 3 Alfuzosine: Patients received a daily 10 mg tablet along 12 months. • Group 4 Combination: Patients received a tablet with a combination of Finasteride 5 mg and Alfuzosine 5 mg daily along 12 months.

plasmatic proteins = details: plasma; cited from earlier work
[2] = tested on: Benign Prostatic Hyperplasia; details: for Incontinence (patients/group) / Invasive Therapy due to BPH (patients/group) / Urinary Retention (patients/group) / Urinary Tract infection (patients/group) / Incontinence / Invasive Therapy due to BPH / Urinary Retention / Urinary Tract infection: 12 months; for Incontinence (patients/group) / Invasive Therapy due to BPH (patients/group) / Urinary Retention (patients/group) / Urinary Tract infection (patients/group) / Incontinence / Invasive Therapy due to BPH / Urinary Retention / Urinary Tract infection / Increase in symptoms according to the score from American Association of Urology at 12 months of treatment / Increase in symptoms according to the score from American Association of Urology at 12 months of treatment (patients/group): same dosing as E17; for Clinical Progression of BPH at 12 months of treatment (patients/group): daily tablet 12 months: Doxazosine titrated 1 to 8 mg, combination Dutasteride 0.5 mg + Doxazosine 1 mg; for Clinical Progression of BPH at 12 months of treatment (patients/group) / Clinical Progression of BPH at 12 months of treatment: Dutasteride 0.5 mg; for Clinical Progression of BPH at 12 months of treatment (patients/group) / Increase in symptoms according to the score from American Association of Urology at 12 months of treatment (patients/group): n=40 per group; for Side Effects / patients who discontinued the treatment: human, in vivo; for Incontinence / Invasive Therapy due to BPH / Urinary Retention / Urinary Tract infection / Clinical Progression of BPH at 12 months of treatment / Increase in symptoms according to the score from American Association of Urology at 12 months of treatment: percent of patients; for Clinical Progression of BPH at 12 months of treatment: Doxazosine titrated 1 to 8 mg, combination 0.5 mg + 1 mg, n=40
Experimental: as §1, with “64-year” for “60-year”
as §2
Subjects were randomized and assigned to a double-blind study divided into 4 groups.

[3] = in vivo; cited from earlier work
blood pressure = details: after oral administration; cited from earlier work
prostate size = details: cited from earlier work; for reduction of prostate size: Dutasteride daily dosage; for reduces prostate size: stated for the 5α-reductase enzyme inhibitors as a class
[4] = cited from earlier work; for serum concentrations as share of the equilibrium state concentration: daily dosage
BPH = details: cited from earlier work
[5] = percent of patients, 12 months, same dosing as E1
[6] = percent of patients, same dosing as E1

patients who discontinued the treatment [1] [%] | SMILES | Incontinence (patients/group) ([1]; 12 months, same dosing as E1) | Invasive Therapy due to BPH (patients/group) ([1]; 12 months, same dosing as E1) | Urinary Tract infection (patients/group) ([1]; 12 months, same dosing as E1) | Clinical Progression of BPH at 12 months of treatment (patients/group) [1] | Side Effects [1] | Incontinence [1, 5] [%] | Invasive Therapy due to BPH [1, 5] [%] | Urinary Tract infection [1, 5] [%] | Clinical Progression of BPH at 12 months of treatment ([1]; percent of patients) [%] | Increase in symptoms according to the score from American Association of Urology at 12 months of treatment [1, 6] [%] | Increase in symptoms according to the score from American Association of Urology at 12 months of treatment (patients/group) ([1]; same dosing as E1) | Incontinence (patients/group) [2] | Invasive Therapy due to BPH (patients/group) [2] | Urinary Retention (patients/group) [2] | Urinary Tract infection (patients/group) [2] | Clinical Progression of BPH at 12 months of treatment (patients/group) [2] | Side Effects [2] | patients who discontinued the treatment [2] [%] | Incontinence [2] [%] | further results
95 | COc1cc2nc(N(C)CCCNC(=O)C3CCCO3)nc(N)c2cc1OC (stereo not drawn) [Alfuzosine] | 4/40 | 4/40 | 2/40 | 18/40 | dizziness, postural hypotension, asthenia and impotence | 10 | 10 | 5 | 45 | 47.5 | 19/40 |  |  |  |  |  |  |  |  | Urinary Retention (patients/group) ([1]; 12 months, same dosing as E1): 21/40; Urinary Retention [1, 5]: 52.5%
 | COc1cc2nc(N3CCN(C(=O)C4COc5ccccc5O4)CC3)nc(N)c2cc1OC (stereo not drawn) [Doxazosine] |  |  |  |  |  |  |  |  |  |  |  | 6/40 | 5/40 | 22/40 | 3/40 | 18/40 | dizziness, postural hypotension, and asthenia | 99 | 15 | bound to plasmatic proteins (plasmatic proteins): 98-99%; Invasive Therapy due to BPH [2]: 12.5%; Urinary Retention [2]: 55%; Urinary Tract infection [2]: 7.5%; Clinical Progression of BPH at 12 months of treatment [2]: 45%; Increase in symptoms according to the score from American Association of Urology at 12 months of treatment [2]: 50%; Increase in symptoms according to the score from American Association of Urology at 12 months of treatment (patients/group) [2]: 20/40; share of the dose removed by urine [3]: 9%; duration of hypotensive effects (remaining active) (blood pressure): at least 24 hours; time at which hypotensive effects are observed (blood pressure): 2 h
 | C[C@]12C=CC(=O)N[C@@H]1CC[C@@H]1[C@@H]2CC[C@]2(C)[C@@H](C(=O)Nc3cc(C(F)(F)F)ccc3C(F)(F)F)CC[C@@H]12 [Dutasteride] |  |  |  |  |  |  |  |  |  |  |  | 5/40 | 2/40 | 15/40 | 1/40 | 11/40 | erectile dysfunction, libido decrease and/or abnormal ejaculation | 60 | 12.5 | Invasive Therapy due to BPH [2]: 5%; Urinary Retention [2]: 37.5%; Urinary Tract infection [2]: 2.5%; Clinical Progression of BPH at 12 months of treatment [2]: 27.5%; Increase in symptoms according to the score from American Association of Urology at 12 months of treatment [2]: 35%; Increase in symptoms according to the score from American Association of Urology at 12 months of treatment (patients/group) [2]: 14/40; reduction of prostate size (prostate size; in some patients): up to 50%; reduction of prostate size (prostate size): at least 20%; reduces prostate size (prostate size): up to 50%; half-life in blood ([4]; blood): 3-5 weeks; serum concentrations as share of the equilibrium state concentration ([4]; after one month): 65%; serum concentrations as share of the equilibrium state concentration ([4]; after three months): approximately 90%
45 | CC(C)(C)NC(=O)[C@H]1CC[C@H]2[C@@H]3CC[C@H]4NC(=O)C=C[C@]4(C)[C@H]3CC[C@]12C [Finasteride] | 3/40 | 2/40 | 1/40 | 13/40 | erectile dysfunction, libido decrease and/or abnormal ejaculation | 7.5 | 5 | 2.5 | 32.5 | 37.5 | 15/40 |  |  |  |  |  |  |  |  | Incidence of side effects during Finasteride treatment (BPH; most common: erectile dysfunction, decrease in ejaculated semen volume): about 3%; reduction in DHT concentration in blood and in prostate gland (BPH; patients who suffer BPH): ≤ 30%; reduction of prostate-specific antigen (PSA) serum levels (BPH; patients who suffer BPH): up to 50%; efficacy in an analysis of six clinical studies (BPH; when prostate weighed >40 g, Logan YT, Belgeri MT 2005): very effective; reduces prostate size (prostate size): up to 50%
